According to patent publication US20240208992A1, “MACROCYCLES AS CFTR MODULATORS” (Idorsia Pharmaceuticals Ltd, priority 2021, published 2024):

Target: human F508del-CFTR (Homo sapiens, UniProt P13569, DEL508-508)
Assay: F508del-CFTR cell surface expression (corrector activity), DiscoveRx ß-galactosidase complementation chemiluminescence assay in recombinant U2OS cell line;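 note: U2OS cells co-expressing ProLink-tagged F508del-CFTR and a membrane-anchored enzyme acceptor, where more surface CFTR restores β-galactosidase activity measured by chemiluminescence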
Conditions: for EC50: EC50, F508del-CFTR cell surface expression, U2OS cells, 16h compound incubation, geomean values; for Emax: U2OS, in relation to Emax of corrector lumacaftor (=100%), arithmetic mean values

Chain of human F508del-CFTR (P13569 with tags, fused parts or gaps DEL508-508): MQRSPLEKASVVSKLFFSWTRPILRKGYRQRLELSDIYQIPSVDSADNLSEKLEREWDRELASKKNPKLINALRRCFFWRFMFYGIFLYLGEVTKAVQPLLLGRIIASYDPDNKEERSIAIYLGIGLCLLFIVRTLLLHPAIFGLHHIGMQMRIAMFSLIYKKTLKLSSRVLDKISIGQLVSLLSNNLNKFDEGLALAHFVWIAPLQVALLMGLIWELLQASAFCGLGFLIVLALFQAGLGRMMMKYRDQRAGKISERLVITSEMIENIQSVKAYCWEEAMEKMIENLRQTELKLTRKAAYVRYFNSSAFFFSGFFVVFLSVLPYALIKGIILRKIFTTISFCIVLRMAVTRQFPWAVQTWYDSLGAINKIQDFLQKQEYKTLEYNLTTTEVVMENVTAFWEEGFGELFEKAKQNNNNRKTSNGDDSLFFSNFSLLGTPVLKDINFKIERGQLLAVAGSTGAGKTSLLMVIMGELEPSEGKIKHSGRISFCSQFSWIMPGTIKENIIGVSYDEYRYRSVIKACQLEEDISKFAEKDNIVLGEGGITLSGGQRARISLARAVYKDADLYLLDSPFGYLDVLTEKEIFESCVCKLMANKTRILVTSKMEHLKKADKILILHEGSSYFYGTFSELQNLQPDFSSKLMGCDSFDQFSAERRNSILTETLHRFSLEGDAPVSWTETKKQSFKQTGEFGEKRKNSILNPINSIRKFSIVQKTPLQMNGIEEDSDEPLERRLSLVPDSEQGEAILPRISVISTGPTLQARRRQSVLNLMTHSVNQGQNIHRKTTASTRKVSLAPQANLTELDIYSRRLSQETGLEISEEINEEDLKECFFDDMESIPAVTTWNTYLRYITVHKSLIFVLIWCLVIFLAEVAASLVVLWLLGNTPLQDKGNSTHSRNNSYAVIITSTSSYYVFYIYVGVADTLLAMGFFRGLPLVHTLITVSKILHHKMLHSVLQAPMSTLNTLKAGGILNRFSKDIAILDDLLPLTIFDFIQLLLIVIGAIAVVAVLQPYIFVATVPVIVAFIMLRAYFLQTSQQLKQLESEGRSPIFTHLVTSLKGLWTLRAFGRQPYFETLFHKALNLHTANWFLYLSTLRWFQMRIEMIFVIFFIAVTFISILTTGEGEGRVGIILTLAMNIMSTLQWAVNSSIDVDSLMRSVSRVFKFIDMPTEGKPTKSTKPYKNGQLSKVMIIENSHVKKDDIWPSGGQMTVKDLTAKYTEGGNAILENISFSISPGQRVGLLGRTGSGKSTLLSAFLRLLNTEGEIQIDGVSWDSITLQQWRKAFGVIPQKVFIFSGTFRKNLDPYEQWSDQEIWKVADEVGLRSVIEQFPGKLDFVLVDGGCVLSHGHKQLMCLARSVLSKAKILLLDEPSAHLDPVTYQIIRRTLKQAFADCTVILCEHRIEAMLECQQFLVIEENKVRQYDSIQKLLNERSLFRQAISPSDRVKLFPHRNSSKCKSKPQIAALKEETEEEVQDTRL

| Structure (SMILES) | EC50 [nM] | Emax [%] |
| --- | --- | --- |
| CC(C)C[C@H]1C(=O)N2CCCC[C@@H]2C(=O)N[C@H](Cc2ccccc2)COc2ccc3ncc(F)cc3c2C(=O)N[C@H](C(=O)NCCc2cc(C3CC3)no2)CC(=O)N1C [Example 655, (9S,13S,19aR,22R)-22-benzyl-N-(2-(3-cyclopropylisoxazol-5-yl)ethyl)-5-fluoro-13-isobutyl-12-methyl-7,11,14,20-tetraoxo-7,8,9,10,11,12,13,14,17,18,19,19a,20,21,22,23-hexadecahydro-16H-pyrido[2′,1′:6,7][1]oxa[4,7,10,14]tetraazacycloheptadecino[16,17-f]quinoline-9-carboxamide] | 150 | 318 |
| COc1nc(C)cc2c1C(=O)N[C@H](C(=O)NCCc1nc(C3CC3)no1)CC(=O)N(C)[C@@H](CC(C)C)C(=O)N1CCCC[C@@H]1C(=O)N[C@H](Cc1ccccc1)CO2 [Example 656, (7S,11S,17aR,20R)-20-benzyl-N-(2-(3-cyclopropyl-1,2,4-oxadiazol-5-yl)ethyl)-11-isobutyl-4-methoxy-2,10-dimethyl-5,9,12,18-tetraoxo-5,6,7,8,9,10,11,12,15,16,17,17a,18,19,20,21-hexadecahydro-14H-dipyrido[2,1-f:3′,4′-p][1]oxa[4,7,10,14]tetraazacycloheptadecine-7-carboxamide] | 357 | 327 |
| [2H]C([2H])([2H])Oc1nc(C)cc2c1C(=O)N[C@H](C(=O)NCCc1nc(C3CC3)no1)CC(=O)N(C)[C@@H](CC(C)C)C(=O)N1CCCC[C@@H]1C(=O)N[C@H](Cc1ccccc1)CO2 [Example 657, (7S,11S,17aR,20R)-20-benzyl-N-(2-(3-cyclopropyl-1,2,4-oxadiazol-5-yl)ethyl)-11-isobutyl-4-(methoxy-d3)-2,10-dimethyl-5,9,12,18-tetraoxo-5,6,7,8,9,10,11,12,15,16,17,17a,18,19,20,21-hexadecahydro-14H-dipyrido[2,1-f:3′,4′-p][1]oxa[4,7,10,14]tetraazacycloheptadecine-7-carboxamide] | 347 | 291 |
| COc1nc(C)cc2c1C(=O)N[C@H](C(=O)NCCc1cc(C3CC3)no1)CC(=O)N(C)[C@@H](CC(C)C)C(=O)N1CCCC[C@@H]1C(=O)N[C@H](Cc1ccccc1)CO2 [Example 658, (7S,11S,17aR,20R)-20-benzyl-N-(2-(3-cyclopropylisoxazol-5-yl)ethyl)-11-isobutyl-4-methoxy-2,10-dimethyl-5,9,12,18-tetraoxo-5,6,7,8,9,10,11,12,15,16,17,17a,18,19,20,21-hexadecahydro-14H-dipyrido[2,1-f:3′,4′-p][1]oxa[4,7,10,14]tetraazacycloheptadecine-7-carboxamide] | 283 | 300 |
| [2H]C([2H])([2H])Oc1nc(C)cc2c1C(=O)N[C@H](C(=O)NCCc1cc(C3CC3)no1)CC(=O)N(C)[C@@H](CC(C)C)C(=O)N1CCCC[C@@H]1C(=O)N[C@H](Cc1ccccc1)CO2 [Example 659, (7S,11S,17aR,20R)-20-benzyl-N-(2-(3-cyclopropylisoxazol-5-yl)ethyl)-11-isobutyl-4-(methoxy-d3)-2,10-dimethyl-5,9,12,18-tetraoxo-5,6,7,8,9,10,11,12,15,16,17,17a,18,19,20,21-hexadecahydro-14H-dipyrido[2,1-f:3′,4′-p][1]oxa[4,7,10,14]tetraazacycloheptadecine-7-carboxamide] | 359 | 325 |
| CC(C)C[C@H]1C(=O)N2CCCC[C@@H]2C(=O)N[C@H](Cc2ccccc2)COc2cnc3cccc(F)c3c2C(=O)N[C@H](C(=O)NCCc2cc(C3CC3)no2)CC(=O)N1C [Example 660, (9S,13S,19aR,22R)-22-benzyl-N-(2-(3-cyclopropylisoxazol-5-yl)ethyl)-6-fluoro-13-isobutyl-12-methyl-7,11,14,20-tetraoxo-7,8,9,10,11,12,13,14,17,18,19,19a,20,21,22,23-hexadecahydro-16H-pyrido[2′,1′:6,7][1]oxa[4,7,10,14]tetraazacycloheptadecino[17,16-c]quinoline-9-carboxamide] | 91 | 358 |
| COc1nccc2c1C(=O)N[C@H](C(=O)NCCc1cc(C3CC3)no1)CC(=O)N(C)[C@@H](CC(C)C)C(=O)N1CCC(F)(F)C[C@@H]1C(=O)N[C@H](Cc1ccccc1)CO2 [Example 663, (7S,11S,17aR,20R)-20-benzyl-N-(2-(3-cyclopropylisoxazol-5-yl)ethyl)-16,16-difluoro-11-isobutyl-4-methoxy-10-methyl-5,9,12,18-tetraoxo-5,6,7,8,9,10,11,12,15,16,17,17a,18,19,20,21-hexadecahydro-14H-dipyrido[2,1-f:3′,4′-p][1]oxa[4,7,10,14]tetraazacycloheptadecine-7-carboxamide] | 801 | 210 |
| [2H]C([2H])([2H])Oc1nc(C)cc2c1C(=O)N[C@H](C(=O)NCCc1cc(C3CC3)on1)CC(=O)N(C)[C@@H](CC(C)C)C(=O)N1CCCC[C@@H]1C(=O)N[C@H](Cc1ccccc1)CO2 [Example 664, (7S,11S,17aR,20R)-20-benzyl-N-(2-(5-cyclopropylisoxazol-3-yl)ethyl)-11-isobutyl-4-(methoxy-d3)-2,10-dimethyl-5,9,12,18-tetraoxo-5,6,7,8,9,10,11,12,15,16,17,17a,18,19,20,21-hexadecahydro-14H-dipyrido[2,1-f:3′,4′-p][1]oxa[4,7,10,14]tetraazacycloheptadecine-7-carboxamide] | 231 | 291 |
| CC(C)C[C@H]1C(=O)N2CCCC[C@@H]2C(=O)N[C@H](Cc2ccccc2)COc2cnc3ccc(F)cc3c2C(=O)N[C@H](C(=O)NCCc2cnn(C3CC3)n2)CC(=O)N1C [Example 665, (9S,13S,19aR,22R)-22-benzyl-N-(2-(2-cyclopropyl-2H-1,2,3-triazol-4-yl)ethyl)-5-fluoro-13-isobutyl-12-methyl-7,11,14,20-tetraoxo-7,8,9,10,11,12,13,14,17,18,19,19a,20,21,22,23-hexadecahydro-16H-pyrido[2′,1′:6,7][1]oxa[4,7,10,14]tetraazacycloheptadecino[17,16-c]quinoline-9-carboxamide] | 119 | 323 |
| [2H]C([2H])([2H])Oc1nc(C)cc2c1C(=O)N[C@H](C(=O)NCCc1noc(C3CC3)n1)CC(=O)N(C)[C@@H](CC(C)C)C(=O)N1CCCC[C@@H]1C(=O)N[C@H](Cc1ccccc1)CO2 [Example 666, (7S,11S,17aR,20R)-20-benzyl-N-(2-(5-cyclopropyl-1,2,4-oxadiazol-3-yl)ethyl)-11-isobutyl-4-(methoxy-d3)-2,10-dimethyl-5,9,12,18-tetraoxo-5,6,7,8,9,10,11,12,15,16,17,17a,18,19,20,21-hexadecahydro-14H-dipyrido[2,1-f:3′,4′-p][1]oxa[4,7,10,14]tetraazacycloheptadecine-7-carboxamide] | 484 | 311 |
| COc1nc(C)cc2c1C(=O)N[C@H](C(=O)NCCc1cc(C(F)(F)F)no1)CC(=O)N(C)[C@@H](CC(C)C)C(=O)N1CCCC[C@H]1C(=O)N[C@H](Cc1ccccc1)CO2 [Example 667, (7S,11S,17aS,20R)-20-benzyl-11-isobutyl-4-methoxy-2,10-dimethyl-5,9,12,18-tetraoxo-N-(2-(3-(trifluoromethyl)isoxazol-5-yl)ethyl)-5,6,7,8,9,10,11,12,15,16,17,17a,18,19,20,21-hexadecahydro-14H-dipyrido[2,1-f:3′,4′-p][1]oxa[4,7,10,14]tetraazacycloheptadecine-7-carboxamide] | 764 | 149 |
| COc1nccc2c1C(=O)N[C@H](C(=O)NCCc1cc(C3CC3)no1)CC(=O)N(C)[C@@H](CC(C)C)C(=O)N1CCC3(CC3)C[C@@H]1C(=O)N[C@H](Cc1ccccc1)CO2 [Example 668, (7′S,11′S,17a′R,20′R)-20′-benzyl-N-(2-(3-cyclopropylisoxazol-5-yl)ethyl)-11′-isobutyl-4′-methoxy-10′-methyl-5′,9′,12′,18′-tetraoxo-5′,6′,7′,8′,9′,10′,11′,12′,14′,15′,17′,17a′,18′,19′,20′,21′-hexadecahydrospiro[cyclopropane-1,16′-dipyrido[2,1-f:3′,4′-p][1]oxa[4,7,10,14]tetraazacycloheptadecine]-7′-carboxamide] | 160 | 330 |
| COc1nccc2c1C(=O)N[C@H](C(=O)NCCc1cc(C3CC3)no1)CC(=O)N(C)[C@@H](CC(C)C)C(=O)N1CC[C@H](c3ccccc3)C[C@H]1C(=O)N[C@H](Cc1ccccc1)CO2 [Example 670, (7S,11S,17aS,20R)-20-benzyl-N-(2-(3-cyclopropylisoxazol-5-yl)ethyl)-11-isobutyl-4-methoxy-10-methyl-5,9,12,18-tetraoxo-16-phenyl-5,6,7,8,9,10,11,12,15,16,17,17a,18,19,20,21-hexadecahydro-14H-dipyrido[2,1-f:3′,4′-p][1]oxa[4,7,10,14]tetraazacycloheptadecine-7-carboxamide] | 353 | 167 |
| COc1nccc2c1C(=O)N[C@H](C(=O)NCCc1cc(C3CC3)no1)CC(=O)N(C)[C@@H](CC(C)C)C(=O)N1CC[C@@H](c3ccccc3)C[C@@H]1C(=O)N[C@H](Cc1ccccc1)CO2 [Example 672, (7S,11S,17aR,20R)-20-benzyl-N-(2-(3-cyclopropylisoxazol-5-yl)ethyl)-11-isobutyl-4-methoxy-10-methyl-5,9,12,18-tetraoxo-16-phenyl-5,6,7,8,9,10,11,12,15,16,17,17a,18,19,20,21-hexadecahydro-14H-dipyrido[2,1-f:3′,4′-p][1]oxa[4,7,10,14]tetraazacycloheptadecine-7-carboxamide] | 103 | 312 |
| COc1nccc2c1C(=O)N[C@H](C(=O)NCCc1cc(C3CC3)no1)CC(=O)N(C)[C@@H](CC(C)C)C(=O)N1CC[C@H](c3ccccc3)C[C@@H]1C(=O)N[C@H](Cc1ccccc1)CO2 [Example 673, (7S,11S,17aR,20R)-20-benzyl-N-(2-(3-cyclopropylisoxazol-5-yl)ethyl)-11-isobutyl-4-methoxy-10-methyl-5,9,12,18-tetraoxo-16-phenyl-5,6,7,8,9,10,11,12,15,16,17,17a,18,19,20,21-hexadecahydro-14H-dipyrido[2,1-f:3′,4′-p][1]oxa[4,7,10,14]tetraazacycloheptadecine-7-carboxamide] | 67 | 314 |
